Several values for one entry are separate records, joined by “and”; a condition that tells them apart may be missing. Equal values may be shown once. Read-outs that look alike come from different tables or passages of the source.
Columns and labels:
human iNOS [1] = molecular target: T1, human iNOS (Homo sapiens, UniProt P35228); experiment: iNOS activity: conversion of radioactive arginine to citrulline; type: biochemical; settings: for dependence of activity on iNOS cofactors: crude cell extract; for NOS activity without calmodulin coexpression: expression in E. coli
T1 construct: A full length iNOS cDNA was assembled from the products of the four PCR reactions; made in house; host or cells: E. coli JS5
T1 sequence (P35228 whole entry): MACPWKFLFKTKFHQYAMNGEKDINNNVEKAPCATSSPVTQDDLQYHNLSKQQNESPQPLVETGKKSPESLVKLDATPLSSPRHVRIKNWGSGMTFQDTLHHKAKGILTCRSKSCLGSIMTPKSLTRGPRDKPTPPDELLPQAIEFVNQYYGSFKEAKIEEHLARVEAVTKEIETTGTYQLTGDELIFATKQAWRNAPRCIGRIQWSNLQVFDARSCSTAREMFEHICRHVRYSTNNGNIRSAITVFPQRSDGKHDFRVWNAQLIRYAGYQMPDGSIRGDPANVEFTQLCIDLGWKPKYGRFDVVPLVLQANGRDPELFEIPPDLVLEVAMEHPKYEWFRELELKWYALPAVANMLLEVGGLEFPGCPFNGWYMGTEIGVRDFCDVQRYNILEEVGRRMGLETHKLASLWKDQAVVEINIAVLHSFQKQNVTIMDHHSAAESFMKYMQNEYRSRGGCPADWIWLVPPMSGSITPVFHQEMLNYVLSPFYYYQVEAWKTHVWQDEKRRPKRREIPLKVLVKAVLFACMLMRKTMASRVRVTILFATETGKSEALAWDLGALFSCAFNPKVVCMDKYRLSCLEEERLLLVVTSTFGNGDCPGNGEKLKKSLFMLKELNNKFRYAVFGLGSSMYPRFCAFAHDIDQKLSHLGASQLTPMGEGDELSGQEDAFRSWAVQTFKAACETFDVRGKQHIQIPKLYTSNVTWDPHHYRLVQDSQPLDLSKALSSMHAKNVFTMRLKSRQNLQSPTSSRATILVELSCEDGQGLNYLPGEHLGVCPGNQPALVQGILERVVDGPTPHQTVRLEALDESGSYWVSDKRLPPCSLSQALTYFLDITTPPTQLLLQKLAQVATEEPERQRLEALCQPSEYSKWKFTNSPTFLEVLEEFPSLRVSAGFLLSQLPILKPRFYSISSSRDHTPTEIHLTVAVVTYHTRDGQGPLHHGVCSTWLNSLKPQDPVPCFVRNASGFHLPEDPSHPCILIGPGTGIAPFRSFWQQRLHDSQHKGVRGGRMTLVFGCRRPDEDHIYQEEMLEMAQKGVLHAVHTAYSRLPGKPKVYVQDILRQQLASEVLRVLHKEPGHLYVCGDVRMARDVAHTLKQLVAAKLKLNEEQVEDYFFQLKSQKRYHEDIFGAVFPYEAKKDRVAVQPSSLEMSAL
Protocol: iNOS activity was measured by the conversion of radioactive arginine to citrulline similar to that described by Bredt and Snyder (Proc. Natl. Acad. Sci. USA, 1989, 86:9030-9033). Reactions contained 20 mM HEPES pH 7.5, 1 mM DTT, 10 μM FAD, 10 μM FMN, 20 μM THB, 2 μM hemin, 1 mM NADPH, 2 mg/ml BSA, 50 μM cold arginine and 1 μM ^3 H-arginine (60 Ci/mmole; Amersham). […] The reaction mix was then passed through 100 μl of Dowex resin (AG50-X8) in a filtration plate to separate citrulline (unbound) from arginine (bound). The filtrate was counted with one volume of scintillation fluid in 1450 Microbeta Plus liquid scintillation counter (Wallac). Enough enzyme is used per assay point to convert 10-20% of the tritiated arginine to product. Activities of various cell extracts examined are reported in units/ml, units defined as pmoles of citrulline formed per minute. Samples of E coli cell lysate expressing iNOS activity were desalted on a G-25 column prior to assay to remove any cold arginine.
NOS assays were performed as described above, except 1 μM undiluted labeled arginine was used. When calmodulin was used it was added at 10 μg/ml.
The iNOS activity in the crude cell extract was further characterized by a number of criteria.
Cells were broken and processed for activity, as described, except that THB was not added. The assay was then run with varying amounts of THB.

rat bNOS [2] = settings: Klatt et al., 1994, cited from earlier work
human iNOS [3] = molecular target: T1, human iNOS; experiment: retention of iNOS activity on overnight storage; type: physicochemical
Protocol: Breakage of cells and the ammonium sulfate fractionations were done in the presence of 10 μM FAD, 10 μM FMN, 2 μM THB, and 2 μM hemin. Leaving these cofactors out of the breaking buffer had no effect on the level of iNOS activity. […] Flavins were omitted after the 40% ammonium sulfate fractionation since they bind tightly to Q Sepharose. CHAPS detergent was included for the Q Sepharose column because iNOS fractionated poorly from the bulk of the protein in its absence. The yield of iNOS from about 20 liters of cells (32 g starting protein in the crude extract) was about 30-40 mg.

murine iNOS = settings: 1991, cited from earlier work
rat bNOS [4] = settings: cited from earlier work

## [Ca+2].[Cl-].[Cl-] [CaCl2, reference compound]
Human iNOS [1]; 1 mM CaCl2
  effect of addition on iNOS activity: unaffected

## O=C(O)CN(CCOCCOCCN(CC(=O)O)CC(=O)O)CC(=O)O [EGTA, reference compound]
Human iNOS [1]; 1 mM EGTA
  effect of addition on iNOS activity: unaffected

## Cc1cc2nc3c(=O)[nH]c(=O)nc-3n(C[C@H](O)[C@H](O)[C@H](O)COP(=O)(O)OP(=O)(O)OC[C@H]3O[C@@H](n4cnc5c(N)ncnc54)[C@H](O)[C@@H]3O)c2cc1C [FAD, reference compound]
Human iNOS [1]
  dependence of activity on iNOS cofactors: no dependence

## Cc1cc2nc3c(=O)[nH]c(=O)nc-3n(C[C@H](O)[C@H](O)[C@H](O)COP(=O)(O)O)c2cc1C [FMN, reference compound]
Human iNOS [1]
  dependence of activity on iNOS cofactors: no dependence

## C[C@H](O)[C@H](O)[C@H]1CNc2nc(N)[nH]c(=O)c2N1 [THB, tetrahydrobiopterin, reference compound]
Human iNOS [1]; E. coli expressed iNOS
  dependence of enzyme activity on added THB: completely dependent
Human iNOS [1]; FIG. 4, cells broken without THB, varying THB in assay, read-out: half-maximal activity (THB titration)
  EC50: ~120 nM and 120 nM
Human iNOS [1]; cells broken in the absence of THB, THB added
  effect of THB on NOS activity: restores NOS activity
Rat bNOS [2]; read-out: Kd for THB binding to rat bNOS
  Kd: ~40 nM
Rat bNOS [2]; in the absence of 100 μM arginine, read-out: binding constant of THB for bNOS
  Kd: 250 nM
Rat bNOS [2]; in the presence of 100 μM arginine, read-out: binding constant of THB for bNOS
  Kd: 37 nM

## N=C(N)NN [aminoguanidine, reference compound]
Human iNOS [1]; FIG. 5, 1 μM labeled arginine, inhibitor 0.01 to 10,000 μM
  IC50's on E. coli-derived compared with 293 cell-derived iNOS: within two-fold of each other on both sources of iNOS

## N=C(N)NCCC[C@H](N)C(=O)O [arginine, L-arginine, reference compound]
Human iNOS [1]; E. coli expressed iNOS
  Km for arginine compared with mammalian derived iNOS: same Km

## c1c[nH]cn1 [imidazole, reference compound]
Human iNOS [1]
  IC50: 120000 nM

## calmodulin
Human iNOS [1]; FIG. 2, coexpression extracts, calmodulin 10 μg/ml, 1 μM undiluted labeled arginine
  effect of addition of calmodulin on NOS activity: no effect
Human iNOS [1]; calcium +10 mg/ml calmodulin
  effect of addition on iNOS activity: unaffected
Human iNOS [1]; iNOS expressed in E. coli without coexpression of calmodulin
  effect of calmodulin in the NOS assay: no effect

## hemin [reference compound]
Human iNOS [1]
  dependence of activity on iNOS cofactors: no dependence

## human iNOS: human inducible nitric oxide synthase expressed in E. coli, coexpressed with human calmodulin
Human iNOS [1]; 40% ammonium sulfate ppt
  Specific Activity: 19,600 units/mg
Human iNOS [1]; E. coli expressed iNOS
  specific activity compared with murine iNOS: approximately the same specific activity
Human iNOS [1]; FIG. 2, average of three assays
  level of activity with coexpression relative to without coexpression: > 100 fold
Human iNOS [1]; Q Sepharose pool
  Specific Activity: 149,000 units/mg
Human iNOS [1]; S300 pool
  Specific Activity: 317,000 units/mg
Human iNOS [1]; cell lysate
  Specific Activity: 2,420 units/mg
Human iNOS [1]; crude extract
  activity with coexpression of calmodulin: 3000-5000 units/mg
Human iNOS [1]
  NOS activity without calmodulin coexpression: barely detectable above background
Human iNOS [1]; listed as iNOS
  NOS activity without calmodulin coexpression: barely detectable above the E. coli negative control
Human iNOS [1]; iNOS amount estimated from SDS gel against BSA control
  specific activity of iNOS in the crude cell supernatant: 500-1000 nmoles citrulline/min/mg of iNOS
Human iNOS [1]; leading edge of the S300 column, >95% pure
  specific activity of the most pure material: 450,000 units/mg
Human iNOS [3]; absence of cofactors (FAD, FMN, THB, hemin)
  activity after overnight storage: half of the activity was lost
Human iNOS [3]; presence of cofactors (10 μM FAD, 10 μM FMN, 2 μM THB, 2 μM hemin)
  activity after overnight storage: complete activity was retained

## murine iNOS: purified murine inducible nitric oxide synthase (Stuehr et al., 1991)
Murine iNOS; Stuehr et al.
  specific activity of purified murine iNOS: 1000 nmol/min/mg
Murine iNOS; pure murine iNOS, b61: Stuehr et al.
  specific activity of murine iNOS: 1×10^6 units/mg and 1,000,000 units/mg

## rat bNOS: rat brain or neuronal nitric oxide synthase
Rat bNOS [4]
  specific activity of rat bNOS: 270,000 units/mg
